What all share (test): NCI-60 cell line screen, 48 h
Test [1] relates to SN12C.
Test [2] concerns SNB-75.
Test [3] relates to MOLT-4.
Test [4] has as its system SK-MEL-2.
Test [5] has as its system HT-29.
For test [6], the system named is OVCAR-5.
Test [7] has as its system CCRF-CEM.
Test [8] deals with SR.
The subject of test [9] is NCI-H522.
Test [10] has as its system HL-60.
Test [11] relates to SW-620.
Test [12] concerns SNB-19.
For test [13], the system named is NCI-H23.
The test system of test [14] is OVCAR-8.
Test [15] has as its system HOP-92.
Test [16] concerns UACC-257.
Test [17] relates to UO-31.
The test system of test [18] is Malme-3M.

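Compound exposure: 48 hours, 5 concentrations, 96-well plates. Abbreviation: GI50, concentration required for 50% inhibition of growth.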 Active and inactive are the calls of the source. No stated cut-off is given here; in the data, active = GI50 up to about 1.1 µM and inactive = higher.

13 compounds from ChEMBL document CHEMBL1201862, “PubChem BioAssay data set” (2004) can be followed below.

In the case of `Cc1cc(NS(=O)(=O)c2ccc(Nc3c4ccccc4nc4c(C(=O)NCCN(C)C)cccc34)cc2)no1`, the GI50 was 3.01 µM (inactive) in test [1]; 4.09 µM (inactive) in test [2]; 0.208 µM (active) in test [3]; 6.43 µM (inactive) in test [4]; 6.03 µM (inactive) in test [5]; 17.9 µM (inactive) in [6]. The GI50 was 1.08 µM (active) in [7]; 0.272 µM (active) in [8]; 0.813 µM (active) in [9]; 0.152 µM (active) in test [10]; 2.52 µM (inactive) in [11]; 1.72 µM (inactive) in test [12]. In addition, the figures for the GI50 in test [13] and in test [14] were 4.46 µM (inactive) and 4.18 µM (inactive), respectively.

As for `CCC1(CN(C)C)CC/C(=C\c2ccc3c(c2)OCO3)C1=O` (configuration not stated), the GI50 in [1], in test [15], in [2], in test [3], in [4] and in test [16] was > 100 µM (inactive) throughout. Besides, the GI50 was 65.2 µM (inactive) in test [5]; > 100 µM (inactive) in test [6]; 91.8 µM (inactive) in test [17]; 48.6 µM (inactive) in test [7]; 49.9 µM (inactive) in [9]; 11.4 µM (inactive) in [10]. For the same compound, the GI50 in test [11] was > 100 µM (inactive); in [12] it was > 100 µM (inactive); in test [18], > 100 µM (inactive); in test [13], > 100 µM (inactive); in test [14], 91.6 µM (inactive).

Consider `O=C1c2ccccc2C(=O)N1CCN(CCN1C(=O)c2ccccc2C1=O)Cn1cccn1`, for which the GI50 in [1] was > 100 µM (inactive); in test [15], > 100 µM (inactive); in test [2] it was 87.3 µM (inactive); in test [3], > 100 µM (inactive); in test [4], > 100 µM (inactive); in [16], > 100 µM (inactive). Besides, the GI50 in test [17] was > 100 µM (inactive); in [7], 32.7 µM (inactive); in test [9], > 100 µM (inactive); in test [10], 27.4 µM (inactive); in test [11], 41.8 µM (inactive); in [12], > 100 µM (inactive). In addition, the GI50 in test [14] was > 100 µM (inactive).

For `COC(=O)c1ccc(/C=C/S(=O)(=O)c2ccccc2)cc1`, the GI50 in [1] was > 100 µM (inactive); in test [15], > 100 µM (inactive); in test [2] it was 67.6 µM (inactive); in test [3] it was > 100 µM (inactive); in [4] it was > 100 µM (inactive); in [16] it was > 100 µM (inactive). Moreover, the GI50 in [5] was > 100 µM (inactive); in test [6] it was > 100 µM (inactive); in test [17] it was > 100 µM (inactive); in [7] it was > 100 µM (inactive); in [9], 83.9 µM (inactive); in test [10] it was > 100 µM (inactive). Further, the GI50 in test [11], in test [12], in test [18], in test [13] and in test [14] was > 100 µM (inactive) throughout.

Regarding `Oc1nc(CC(O)c2ccc(Cl)c(Cl)c2)cc(-c2ccccc2)n1` (configuration not stated), the GI50 in test [1] was > 100 µM (inactive); in test [15], 82.8 µM (inactive); in test [2] it was 33 µM (inactive); in test [3], 75.3 µM (inactive); in test [4] it was 26.1 µM (inactive); in test [16], 36.1 µM (inactive). Besides, the GI50 was 40.5 µM (inactive) in test [5]; 11.2 µM (inactive) in [6]; 26.2 µM (inactive) in test [17]; 30.1 µM (inactive) in test [7]; 22.6 µM (inactive) in test [9]; 25.1 µM (inactive) in [10]. Moreover, the GI50 was > 100 µM (inactive) in [11]; 67.9 µM (inactive) in [12]; 46.8 µM (inactive) in test [18]; 71.9 µM (inactive) in test [13]; > 100 µM (inactive) in [14].

Take `CC1C=C[C@H](Sc2ccccc2)CC[C@@]1(C)O` (some centres not stated): the GI50 is > 100 µM (inactive) in test [1]; 40.5 µM (inactive) in test [15]; 97.1 µM (inactive) in [2]; 35.1 µM (inactive) in test [3]; > 100 µM (inactive) in test [4]; > 100 µM (inactive) in test [16]. The GI50 was > 100 µM (inactive) in test [5]; > 100 µM (inactive) in test [6]; 30.1 µM (inactive) in test [17]; 34.7 µM (inactive) in test [7]; 33.6 µM (inactive) in test [10]; > 100 µM (inactive) in test [11]. Moreover, the GI50 in [12] was 89.9 µM (inactive); in test [18], > 100 µM (inactive); in test [13], 70.5 µM (inactive); in test [14], > 100 µM (inactive).

On to `O=C(Nc1ccccc1SC(/C=C/NNC1=NN=C(c2ccccc2)C(c2ccccc2)N1)c1ccccc1)c1ccc(Cl)cc1Cl` (configuration not stated), for which the GI50 is 32.6 µM (inactive) in [1]; 52.4 µM (inactive) in test [2]; > 10 µM (inactive) in [3]; 20.9 µM (inactive) in test [4]; > 100 µM (inactive) in test [16]; > 100 µM (inactive) in test [5]. For the same compound, the GI50 was 44.8 µM (inactive) in test [6]; 34 µM (inactive) in [17]; 48.8 µM (inactive) in [7]; > 100 µM (inactive) in [9]; 35.6 µM (inactive) in [10]; > 100 µM (inactive) in [11]. The GI50 was 80 µM (inactive) in test [12], > 100 µM (inactive) in test [18], 22.8 µM (inactive) in [13] and 74.5 µM (inactive) in test [14].

In the case of `Cc1ccc(S(=O)(=O)NC2(C=O)CCCC3CCCCC32)cc1` (configuration not stated), the GI50 in test [1], in test [2], in test [3], in test [4], in test [16] and in test [17] was > 100 µM (inactive) in each case. Further, the GI50 in [7], in [8], in test [9], in [10], in test [11] and in [12] was > 100 µM (inactive) throughout. Besides, the GI50 in test [18] and in test [14] was > 100 µM (inactive) each time.

On to `CCN1CCC(O)(/C=C/c2ccccc2)C(C(=O)/C=C/c2ccccc2)C1` (configuration not stated), for which the GI50 was 1.79 µM (inactive) in [1]; 2.64 µM (inactive) in test [15]; 6.4 µM (inactive) in test [2]; 2.21 µM (inactive) in test [3]; 2.65 µM (inactive) in test [4]; 1.98 µM (inactive) in test [16]. Besides, the GI50 in [5] was 1.76 µM (inactive); in [6], 3.06 µM (inactive); in test [17] it was 10.1 µM (inactive); in test [9], 1.73 µM (inactive); in [10] it was 1.64 µM (inactive); in test [11], 1.69 µM (inactive). For the same compound, the GI50 in [12] is 9.98 µM (inactive); in [18], 2.26 µM (inactive); in [13], 2.93 µM (inactive); in test [14] it was 1.89 µM (inactive).

With `COC(=O)C1=C(C)N(NC(=O)Nc2ccccc2)C2(N)N(NC(=O)Nc3ccccc3)C(C)=C(C(=O)OC)C12C(=O)OC` (configuration not stated), the GI50 was 63.2 µM (inactive) in [1]; > 100 µM (inactive) in [15]; 36.1 µM (inactive) in [2]; 27.1 µM (inactive) in test [3]; 36 µM (inactive) in test [4]; 16.4 µM (inactive) in test [16]. The GI50 is 65.2 µM (inactive) in test [5]; > 100 µM (inactive) in [6]; > 100 µM (inactive) in test [17]; 35.2 µM (inactive) in [7]; 32.3 µM (inactive) in test [9]; 63.4 µM (inactive) in test [11]. The GI50 in [18] is 84.5 µM (inactive); in test [13], > 100 µM (inactive); in test [14], 71 µM (inactive).

For `COc1ccc(NC(=O)CC(=O)N/N=C/c2ccc(N(CCC#N)S(C)(=O)=O)cc2)cc1`, the GI50 in test [1], in [2], in test [3], in test [4], in test [5] and in test [6] was > 100 µM (inactive) throughout. Moreover, the GI50 in test [17] is > 100 µM (inactive); in test [7] it was > 100 µM (inactive); in test [8] it was 3.33 µM (inactive); in test [9], > 100 µM (inactive); in test [11], > 100 µM (inactive); in [18] it was > 100 µM (inactive). The GI50 in test [13] and in test [14] was > 100 µM (inactive) each time.

Consider `C[C@]12CCC(=O)C=C1CC[C@@H]1C2CC[C@]2(C)NC(=O)C(C#N)CC12` (some centres not stated), for which the GI50 in test [2] is > 100 µM (inactive); in test [3], > 100 µM (inactive); in [4] it was > 100 µM (inactive); in test [16], > 100 µM (inactive); in test [5] it was 30.8 µM (inactive); in [6], > 100 µM (inactive). For the same compound, the GI50 in test [17], in [7], in [10], in test [11], in [18] and in [13] was > 100 µM (inactive) each time. Further, the GI50 in test [14] was > 100 µM (inactive).

Take `O=C1NC(=O)C(C(=O)C(=O)Nc2cc(Cl)ccc2Cl)C(=O)N1`: the GI50 in test [15] is 91.8 µM (inactive); in test [2] it was 83.2 µM (inactive); in test [3], > 100 µM (inactive); in test [4], > 100 µM (inactive); in test [16], > 100 µM (inactive); in [6], > 100 µM (inactive). The GI50 in test [17], in test [7], in test [9], in test [10], in test [11] and in test [12] was > 100 µM (inactive) throughout. In addition, the GI50 in test [18], in [13] and in test [14] was > 100 µM (inactive) in each case.
